Assays:
Type in all cases: cell-based
human TREK-1 [1] = biological target: T1, human TREK-1 (Homo sapiens, UniProt O95069); assay: TREK-1 Thallium flux assay, Method 2; conditions: measured by Method 2 of TREK1 Thalium flux assay (footnote *12); read-out: Tl+ Assay IC50
T1 construct: expressed in transfected cells
T1 sequence (O95069 1-426): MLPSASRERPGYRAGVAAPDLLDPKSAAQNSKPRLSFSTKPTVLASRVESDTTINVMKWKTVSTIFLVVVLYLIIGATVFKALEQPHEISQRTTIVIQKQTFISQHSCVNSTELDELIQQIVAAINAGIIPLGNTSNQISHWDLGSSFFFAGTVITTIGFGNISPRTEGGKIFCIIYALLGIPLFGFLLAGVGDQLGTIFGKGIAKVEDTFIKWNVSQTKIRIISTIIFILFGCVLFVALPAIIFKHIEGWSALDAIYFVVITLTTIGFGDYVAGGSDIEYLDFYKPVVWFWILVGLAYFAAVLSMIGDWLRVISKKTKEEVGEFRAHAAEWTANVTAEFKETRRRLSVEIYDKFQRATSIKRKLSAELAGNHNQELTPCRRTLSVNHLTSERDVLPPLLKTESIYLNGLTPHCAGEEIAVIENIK
Protocol: CHO-K1 cells stably expressing human TREK-1 were plated in 384-well plates on the day of assay, loaded with Thallos dye. Test compounds or control compound (tert-butyl (3-((4-(benzyloxy)-2-methylphenyl)carbamoyl)-4-chlorophenyl)carbamate) or 0.3% DMSO (vehicle control) were added directly to the cell plates and incubated for 10 min, and then treated with thallium stimulus buffer to initiate thallium flux. To measure the efficacy and potency of test compounds, the change in fluorescence intensity (ΔRatio) and % inhibition were calculated using the following equations:
ΔRatio=(fluorescence intensity at 25 seconds after thallium addition)/(average of fluorescent intensity before thallium addition)

human TREK-1 [2] = biological target: T1, human TREK-1; assay: TREK-1 Manual Patch Clamp (hMPC) assay; conditions: CHO-K1 cells stably expressing human TREK-1; whole-cell current at 0 mV
Protocol: The term “patch clamp technique” herein refers to the “gold standard” technique for evaluating TREK channel pharmacology. The detail method is described below.
CHO-K1 cells stably expressing human TREK-1 or HEK293 cells stably expressing human TREK-2 are plated on glass coverslips, and voltage clamped in the whole-cell configuration of the patch clamp technique. Cells were voltage clamped at a holding potential of −80 mV and the stepped to 0 mV for 500 msec. The voltage was subsequently ramped from −120 mV to +80 mV over a 500 msec duration. This step-ramp protocol was repeated every 10 sec. The bathing solution contained the following: 135 mM NaCl, 5 mM KCl, 2 mM CaCl2, 1 mM MgCl2, 5 mM D-Glucose, 10 mM HEPES, 10 mM sucrose (adjusted to pH 7.4 with NaOH, 300 mosmol/kg H2O). The pipette solution contained the following: 135 mM KCl, 2 mM MgCl2, 1 mM EGTA, 10 mM HEPES, 2 mM Na2ATP (adjusted to pH 7.35 with KOH, 285 mosmol/kg H2O). Test compounds were dissolved into the bathing solution. Experiments on TREK-2 were terminated with the addition of the control compound (tert-butyl (3-((4-(benzyloxy)-2-methylphenyl)carbamoyl)-4-chlorophenyl)carbamate) so that maximal inhibition could be determined. The effects of test compound on the currents were calculated at 0 mV using the following equations:
For CHO cells expressing TREK-1 channel: % inhibition=(1-post current/pre current)×100
The compounds shown in Table 2 were prepared in an analogous manner with the appropriate starting materials, and evaluated in our TREK-1 Manual Patch Clamp (hMPC) assay.

human TREK-1 [3] = biological target: T1, human TREK-1; assay: TREK-1 Thallium (Tl+) flux assay, Method 1; conditions: TREK-1 Thallium (Tl+) flux assay
In short: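 Readout: Thallos fluorescence ratio, taken 25 s post-thallium relative to the pre-thallium baseline average, then converted to % inhibition. Cells were CHO-K1 stably expressing human TREK-1, dye-loaded and exposed to test compound (vehicle 0.3% DMSO) for 10 min prior to thallium stimulation.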

[4] = values without footnote *12 are Method 1

SMILES	IC50 (human TREK-1 [1]) [nM]	IC50 (human TREK-1 [2]) [nM]	IC50 (human TREK-1 [3]; [4]) [nM]	IC50 (human TREK-1 [3]; no *^12 (Method 2) mark on these rows) [nM]
Cc1cc(C#Cc2ccccc2)cnc1NC(=O)c1c(Cl)cnn1[C@H]1CCn2nccc2C1 (single isomer, unassigned) [Compound 456, 4-chloro-N-[3-methyl-5-(phenylethynyl)pyridin-2-yl]-1-[(5S)-4,5,6,7-tetrahydropyrazolo[1,5-a]pyridin-5-yl]-1H-pyrazole-5-carboxamide or 4-chloro-N-[3-methyl-5-(phenylethynyl)pyridin-2-yl]-1-[(5R)-4,5,6,7-tetrahydropyrazolo[1,5-a]pyridin-5-yl]-1H-pyrazole-5-carboxamide]	120			
Cc1cc(C#Cc2ccccc2)cnc1NC(=O)c1c(Cl)cnn1[C@H]1CCn2nccc2C1 (single isomer, unassigned) [Compound 457, 4-chloro-N-[3-methyl-5-(phenylethynyl)pyridin-2-yl]-1-[(5S)-4,5,6,7-tetrahydropyrazolo[1,5-a]pyridin-5-yl]-1H-pyrazole-5-carboxamide or 4-chloro-N-[3-methyl-5-(phenylethynyl)pyridin-2-yl]-1-[(5R)-4,5,6,7-tetrahydropyrazolo[1,5-a]pyridin-5-yl]-1H-pyrazole-5-carboxamide]	37			
Cc1cc(C#Cc2ccccc2)cnc1NC(=O)c1c(Cl)cnn1CC1CCOCC1 [Compound 2, 4-chloro-N-(3-methyl-5-(phenylethynyl)pyridin-2-yl)-1-((tetrahydro-2H-pyran-4-yl)methyl)-1H-pyrazole-5-carboxamide]		60	200	
Cc1cc(C#Cc2ccccc2)cnc1NC(=O)c1c(Cl)cnn1[C@@H]1CCOC1 [Compound 3, (R)-4-chloro-N-(3-methyl-5-(phenylethynyl)pyridin-2-yl)-1-(tetrahydrofuran-3-yl)-1H-pyrazole-5-carboxamide]		530	360	
O=C(Nc1ncc(C#Cc2ccccc2)cc1F)c1c(Cl)cnn1C[C@H]1COCCO1 [Compound 4, (S)-1-((1,4-dioxan-2-yl)methyl)-4-chloro-N-(3-fluoro-5-(phenylethynyl)pyridin-2-yl)-1H-pyrazole-5-carboxamide]		70	220	
CC(=O)N1CCC(n2ncc(Cl)c2C(=O)Nc2ncc(C#Cc3ccccc3)cc2C)CC1 [Compound 5, 1-(1-acetylpiperidin-4-yl)-4-chloro-N-(3-methyl-5-(phenylethynyl)pyridin-2-yl)-1H-pyrazole-5-carboxamide]		60	70	
CC(=O)N1CCC(n2ncc(Cl)c2C(=O)Nc2ncc(C#Cc3ccccc3)cc2F)CC1 [Compound 6, 1-(1-acetylpiperidin-4-yl)-4-chloro-N-(3-fluoro-5-(phenylethynyl)pyridin-2-yl)-1H-pyrazole-5-carboxamide]		70	70	
CC(=O)N1CCC(n2ncc(Cl)c2C(=O)Nc2ncc(C#Cc3ccc(F)cc3)cc2F)CC1 [Compound 7, 1-(1-acetylpiperidin-4-yl)-4-chloro-N-(3-fluoro-5-((4-fluorophenyl)ethynyl)pyridin-2-yl)-1H-pyrazole-5-carboxamide]		30	140	
CC(=O)N1CCC(n2ncc(Cl)c2C(=O)Nc2ncc(C#Cc3ccc(F)cc3)cc2C)CC1 [Compound 8, 1-(1-acetylpiperidin-4-yl)-4-chloro-N-(5-((4-fluorophenyl)ethynyl)-3-methylpyridin-2-yl)-1H-pyrazole-5-carboxamide]		90	200	
Cc1cc(C#Cc2ccccc2)cnc1NC(=O)c1c(Cl)cnn1C1CCn2nccc2C1 (centres unmarked) [Compound 9, 4-chloro-N-(3-methyl-5-(phenylethynyl)pyridin-2-yl)-1-(4,5,6,7-tetrahydropyrazolo[1,5-a]pyridin-5-yl)-1H-pyrazole-5-carboxamide]		20	140	
O=C(Nc1ncc(C#Cc2ccccc2)cc1F)c1c(Cl)cnn1C1CCN(C(=O)C2COCCO2)CC1 (centres unmarked) [Compound 11, 1-(1-(1,4-dioxane-2-carbonyl)piperidin-4-yl)-4-chloro-N-(3-fluoro-5-(phenylethynyl)pyridin-2-yl)-1H-pyrazole-5-carboxamide]		100	120	
CC(=O)N[C@H]1CC[C@@H](n2ncc(Cl)c2C(=O)Nc2ncc(C#Cc3ccccc3)cc2F)CC1 [Compound 13, 1-(cis-4-acetamidocyclohexyl)-4-chloro-N-(3-fluoro-5-(phenylethynyl)pyridin-2-yl)-1H-pyrazole-5-carboxamide]		60	120	
CC(=O)N[C@H]1CC[C@@H](n2ncc(Cl)c2C(=O)Nc2ncc(C#Cc3ccc(F)cc3)cc2C)CC1 [Compound 14, 1-(cis-4-acetamidocyclohexyl)-4-chloro-N-(5-((4-fluorophenyl)ethynyl)-3-methylpyridin-2-yl)-1H-pyrazole-5-carboxamide]		2	260	
CC(=O)N1CCC(F)(Cn2ncc(Cl)c2C(=O)Nc2ncc(C#Cc3ccccc3)cc2C)CC1 [Compound 15, 1-((1-acetyl-4-fluoropiperidin-4-yl)methyl)-4-chloro-N-(3-methyl-5-(phenylethynyl)pyridin-2-yl)-1H-pyrazole-5-carboxamide]		290	400	
CC(=O)N1CCC([C@H](C)n2ncc(Cl)c2C(=O)Nc2ncc(C#Cc3ccccc3)cc2C)CC1 [Compound 16, (S)-1-(1-(1-acetylpiperidin-4-yl)ethyl)-4-chloro-N-(3-methyl-5-(phenylethynyl)pyridin-2-yl)-1H-pyrazole-5-carboxamide]		160	100	
CC(=O)N1CC(F)(Cn2ncc(Cl)c2C(=O)Nc2ncc(C#Cc3ccccc3)cc2F)C1 [Compound 140, 1-((1-acetyl-3-fluoroazetidin-3-yl)methyl)-4-chloro-N-(3-fluoro-5-(phenylethynyl)pyridin-2-yl)-1H-pyrazole-5-carboxamide]		130	220	
CC(=O)N1CC(F)(Cn2ncc(Cl)c2C(=O)Nc2ncc(C#Cc3ccccc3)cc2C)C1 [Compound 215, 1-((1-acetyl-3-fluoroazetidin-3-yl)methyl)-4-chloro-N-(3-methyl-5-(phenylethynyl)pyridin-2-yl)-1H-pyrazole-5-carboxamide]		130		330
Cc1cc(C#Cc2ccccc2)cnc1NC(=O)c1c(Cl)cnn1[C@H]1CCN(C(=O)C2CC2)C1 [Compound 454, 4-chloro-1-[(3S)-1-(cyclopropanecarbonyl)pyrrolidin-3-yl]-N-[3-methyl-5-(phenylethynyl)pyridin-2-yl]-1H-pyrazole-5-carboxamide]	130	100		
Cc1cc(C#Cc2ccccc2)cnc1NC(=O)c1c(Cl)cnn1[C@@H]1CCN(C(=O)C2CC2)C1 [Compound 455, 4-chloro-1-[(3R)-1-(cyclopropanecarbonyl)pyrrolidin-3-yl]-N-[3-methyl-5-(phenylethynyl)pyridin-2-yl]-1H-pyrazole-5-carboxamide]	140			

— patent publication US20240182445A1 (ONO PHARMACEUTICAL CO., LTD., priority 2019, published 2024)
